# Laboratory results published in patent US7799804B2, “Therapeutic agents” (Astrazeneca AB, priority 2004, dated 2010).
# Biological target: T1, CB1 receptor (Homo sapiens, UniProt P21554)
# T1 construct: expressed in transfected cells
# Assay: [35S]-GTPγS binding assay on membranes from cells stably transfected with the CB1 gene, inhibition of agonist CP55940 (EC80)
# Format: biochemical
# Details: half maximal inhibition of GTPγS binding in presence of EC80 concentration of CP55940; 30° C., 45 min
# Protocol: 10 μg of membranes prepared from cells stably transfected with the CB1 gene were suspended in 200 μl of 100 mM NaCl, 5 mM MgCl2, 1 mM EDTA, 50 mM HEPES (pH 7.4), 1 mM DTT, 0.1% BSA and 100 μM GDP.
# The reaction was allowed to proceed at 30° C. for 45 min. Samples were then transferred on to GF/B filters using a cell harvester and washed with wash buffer (50 mM Tris (pH 7.4), 5 mM MgCl2, 50 mM NaCl). Filters were then covered with scintillant and counted for the amount of [^35S]-GTPγS retained by the filter.
# Activity is measured in the absence of all ligands (minimum activity) or in the presence of an EC80 concentration of CP55940 (maximum activity). These activities are set as 0% and 100% activity respectively. At various concentrations of novel ligand, activity is calculated as a percentage of the maximum activity and plotted. The data are fitted using the equation y=A+((B−A)/1+((C/x) UD)) and the IC50 value determined as the concentration required to give half maximal inhibition of GTPγS binding under the conditions used.
# T1 sequence (P21554 whole entry): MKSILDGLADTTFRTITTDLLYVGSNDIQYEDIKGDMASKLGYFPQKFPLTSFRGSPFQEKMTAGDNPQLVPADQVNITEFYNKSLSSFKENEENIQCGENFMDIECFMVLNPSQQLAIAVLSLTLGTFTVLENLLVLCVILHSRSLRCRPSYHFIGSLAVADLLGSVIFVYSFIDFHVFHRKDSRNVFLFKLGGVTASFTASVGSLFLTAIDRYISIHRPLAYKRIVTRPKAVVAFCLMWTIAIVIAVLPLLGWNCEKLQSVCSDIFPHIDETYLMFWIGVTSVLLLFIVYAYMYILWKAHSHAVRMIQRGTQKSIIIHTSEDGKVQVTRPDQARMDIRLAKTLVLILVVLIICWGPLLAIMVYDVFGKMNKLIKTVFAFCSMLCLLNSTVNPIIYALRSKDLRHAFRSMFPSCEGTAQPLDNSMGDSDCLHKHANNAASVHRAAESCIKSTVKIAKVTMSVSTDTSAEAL
smiles,measurement,value
"CCS(=O)(=O)Oc1ccc(-n2c(-c3ccc(Cl)cc3Cl)nc(C(=O)NN3CCCCC3)c2C)cc1 [Example 2, Ethanesulfonic acid 4-[2-(2,4-dichlorophenyl)-5-methyl-4-(piperidin-1-ylcarbamoyl)-imidazol-1-yl]-phenyl ester]",IC50,28 nM
